By pIC50 is commonly meant −log10 of the IC50, conventionally taken in molar units.

The text below walks through data of patent US6265572A, “Pyrrolidincarbonylamino cyclic disulfide anti-inflammatory agents” (Hoffmann-La Roche Inc., priority 2000, dated 2001).

One experiment addresses T1, VLA-4/VCAM-1 (Homo sapiens, UniProt P05556+P13612).
T1 construct: Ramos cell-derived VLA-4; endogenous in cells; host or cells: Ramos cells (VLA-4)
As to the kind of experiment: VLA-4/VCAM-1 Screening Assay (solid-phase, dual antibody ELISA). The experiment is classed as binding. As to conditions: Ramos cell-derived VLA-4, immobilized recombinant human VCAM-1. The source says: A means for determining the potency of these anti-inflammatory agents is by evaluating their ability to inhibit binding of the integrin VLA-4 to the cell adhesion molecule VCAM-1. For example, the potency of the compounds herein can be determined with respect to the concentration of the compound at 50% inhibition of VCAM/VLA4 binding (IC50) as measured by VLA-4/VCAM-1 binding assay.
In accordance with the present invention, any conventional method known in the art can be used to determine inhibition of VCAM-1/VLA-4 binding. For example, a solid-phase dual antibody ELISA or Ramos cell-based screening assay can be utilized to determine inhibition of VCAM-1/VLA-4 binding.
VLA-4/VCAM-1 Screening Assay
VLA-4 antagonist activity, defined as ability to compete for binding to immobilized VCAM-1, was quantitated using a solid-phase, dual antibody ELISA. VLA-4 (α4β1 integrin) bound to VCAM-1 is detected by a complex of anti-integrin β1 antibody: HRP-conjugated anti-mouse IgG: chromogenic substrate (K-Blue). Initially, this entailed coating 96 well plates (Nunc Maxisorp) with recombinant human VCAM-1 (0.4 μg in 100 μl PBS), sealing each plate and then allowing the plates to stand at 4° C. for 18 hours. […] On the day of assay, all plates are washed twice with VCAM Assay Buffer (200 μl/well of 50 mM Tris-HCl, 100 mM NaCl, 1 mM MnCl2, 0.05% T ween 20; pH 7.4). Test compounds are dissolved in 100% DMSO and then diluted 1:20 in VCAM Assay Buffer supplemented with 1 mg/mL BSA (i.e., final DMSO=5%). A series of 1:4 dilutions are performed to achieve a concentration range of 0.005 nM-1.563 μM for each test compound. 100 μl per well of each dilution is added to the VCAM-coated plates, followed by 10 μl of Ramos cell-derived VLA-4. These plates are sequentially mixed on a platform shaker for 1 min, incubated for 2 hour at 37° C., and then washed four times with 200 μl/well VCAM Assay Buffer. 100 μl of mouse anti-human integrin b1 antibody is added to each well (0.6 μg/mL in VCAM Assay Buffer+1 mg/mL BSA) and allowed to incubate for 1 hour at 37° C. At the conclusion of this incubation period, all plates are washed four times with VCAM Assay Buffer (200 μl/well). A corresponding second antibody, HRP-conjugated goat anti-mouse IgG (100 μl per well @ 1:800 dilution in VCAM Assay Buffer+1 mg/mL BSA), is then added to each well, followed by a 1 hour incubation at room temperature and concluded by three washes (200 μl/well) with VCAM Assay Buffer. Color development is initiated by addition of 100 μl K-Blue per well (15 mim incubation, room temp) and terminated by addition of 100 μl Red Stop Buffer per well. All plates are then read in a UV/Vis spectrophotometer at […]. Results are calculated as % inhibition of total binding (i.e., VLA-4+VCAM-1 in the absence of test compound).
On the technique in general: An ELISA detects its analyte on a solid surface through an enzyme-linked reagent.

Another experiment has as its target T2, Ramos (VLA-4)/VCAM-1 (Homo sapiens, UniProt P05556+P13612).
T2 construct: Ramos cells bearing cell-surface VLA-4; endogenous in cells; host or cells: Ramos cells (VLA-4); soluble VCAM-1 purified from CHO cell culture media
As to the kind of experiment: Ramos (VLA-4)/VCAM-1 Cell-Based Screening Assay (Ramos-VCAM-1 cell adhesion). As to conditions: Calcein-AM labeled Ramos cells, immobilized recombinant human VCAM-1. Here is the method: Ramos (VLA-4)/VCAM-1 Cell-Based Screening Assay Protocol
Soluble recombinant human VCAM-1 (mixture of 5- and 7-Ig domain) was purified from CHO cell culture media by immunoaffinity chromatography and maintained in a solution containing 0.1 M Tris-glycine (pH 7.5), 0.1 M NaCl, 5 mM EDTA, 1 mM PMSF, […] NaN3 and 10 μg/mL leupeptin. Calcein-AM was purchased from Molecular Probes Inc.
VLA-4 (a4b1 integrin) antagonist activity, defined as the ability to compete with cell-surface VLA-4 for binding to immobilized VCAM-1, was quantitated using a Ramos-VCAM-1 cell adhesion assay. Ramos cells bearing cell-surface VLA-4, were labeled with a fluorescent dye (Calcein-AM) and allowed to bind VCAM-1 in the presence or absence of test compounds. A reduction in fluorescence intensity associated with adherent cells (% inhibition) reflected competitive inhibition of VLA-4 mediated cell adhesion by the test compound.
Initially, this entailed coating 96 well plates (Nunc Maxisorp) with recombinant human VCAM-1 (100 ng in 100 μl PBS), sealing each plate and allowing the plates to stand at 4° C. for ^~ 18 hour. The VCAM-coated plates were subsequently washed twice with 0.05% Tween-20 in PBS, and then blocked for 1 hour (room temperature) with 200 μl of Blocking Buffer (1% BSA/0.02% thimerosal) to reduce non-specific binding. Following the incubation with Blocking Buffer, plates were inverted, blotted and the remaining buffer aspirated. Each plate was then washed with 300 μl PBS, inverted and the remaining PBS aspirated.
Test compounds were dissolved in 100% DMSO and then diluted 1:25 in VCAM Cell Adhesion Assay Buffer (4 mM CaCl2, 4 mM MgCl2 in 50 mM TRIS-HCl, pH 7.5) (final DMSO=4%). A series of eight 1:4 dilutions were performed for each compound (general concentration range of 1 nM-12,500 nM). 100 μl/well of each dilution was added to the VCAM-coated plates, followed by 100 μl of Ramos cells (200,000 cells/well in 1% BSA/PBS). Plates containing test compounds and Ramos cells were allowed to incubate for 45 min at room temperature, after which 165 μl/well PBS was added. Plates were inverted to remove non-adherent cells, blotted and 300 μl/well PBS added. Plates were again inverted, blotted and the remaining buffer gently aspirated. 100 μl Lysis Buffer (0.1% SDS in 50 mM TRIS-HCl, pH 8.5) was added to each well and agitated for 2 min on a rotary shaking platform. The plates were then read for fluorescence intensity on a Cytofluor 2300 (Millipore) fluorecence measurement system (excitation=485 nm, emission=530 nm).

SMILES strings stand for the structures. pIC50: −log10 of the molar value.

T1 sequence (P13612 34-1032): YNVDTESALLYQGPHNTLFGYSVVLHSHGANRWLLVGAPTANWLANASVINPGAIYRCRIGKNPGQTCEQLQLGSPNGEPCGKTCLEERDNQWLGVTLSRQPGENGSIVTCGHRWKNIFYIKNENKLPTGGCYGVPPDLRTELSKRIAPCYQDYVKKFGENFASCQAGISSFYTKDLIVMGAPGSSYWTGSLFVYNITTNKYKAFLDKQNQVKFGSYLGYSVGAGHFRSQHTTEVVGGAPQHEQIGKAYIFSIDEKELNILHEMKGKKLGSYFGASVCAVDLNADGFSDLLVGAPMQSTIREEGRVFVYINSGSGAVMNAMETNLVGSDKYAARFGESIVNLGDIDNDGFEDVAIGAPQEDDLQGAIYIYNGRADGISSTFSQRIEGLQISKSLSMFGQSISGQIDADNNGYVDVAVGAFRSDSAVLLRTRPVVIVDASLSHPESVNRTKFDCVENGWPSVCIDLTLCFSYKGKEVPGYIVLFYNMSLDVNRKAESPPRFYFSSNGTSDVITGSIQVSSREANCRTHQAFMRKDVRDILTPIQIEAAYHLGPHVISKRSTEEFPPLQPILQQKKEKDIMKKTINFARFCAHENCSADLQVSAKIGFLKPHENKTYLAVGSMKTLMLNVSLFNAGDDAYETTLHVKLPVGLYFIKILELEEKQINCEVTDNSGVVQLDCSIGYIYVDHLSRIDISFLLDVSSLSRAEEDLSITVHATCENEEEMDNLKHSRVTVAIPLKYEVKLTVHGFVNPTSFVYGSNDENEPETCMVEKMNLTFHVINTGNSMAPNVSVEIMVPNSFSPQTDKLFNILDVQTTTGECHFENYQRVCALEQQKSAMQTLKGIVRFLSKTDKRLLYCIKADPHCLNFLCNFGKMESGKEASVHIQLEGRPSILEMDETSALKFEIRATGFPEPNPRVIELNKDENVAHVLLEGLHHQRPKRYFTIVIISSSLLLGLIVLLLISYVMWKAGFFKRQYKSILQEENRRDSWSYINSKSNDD
T1 sequence (P05556 21-798): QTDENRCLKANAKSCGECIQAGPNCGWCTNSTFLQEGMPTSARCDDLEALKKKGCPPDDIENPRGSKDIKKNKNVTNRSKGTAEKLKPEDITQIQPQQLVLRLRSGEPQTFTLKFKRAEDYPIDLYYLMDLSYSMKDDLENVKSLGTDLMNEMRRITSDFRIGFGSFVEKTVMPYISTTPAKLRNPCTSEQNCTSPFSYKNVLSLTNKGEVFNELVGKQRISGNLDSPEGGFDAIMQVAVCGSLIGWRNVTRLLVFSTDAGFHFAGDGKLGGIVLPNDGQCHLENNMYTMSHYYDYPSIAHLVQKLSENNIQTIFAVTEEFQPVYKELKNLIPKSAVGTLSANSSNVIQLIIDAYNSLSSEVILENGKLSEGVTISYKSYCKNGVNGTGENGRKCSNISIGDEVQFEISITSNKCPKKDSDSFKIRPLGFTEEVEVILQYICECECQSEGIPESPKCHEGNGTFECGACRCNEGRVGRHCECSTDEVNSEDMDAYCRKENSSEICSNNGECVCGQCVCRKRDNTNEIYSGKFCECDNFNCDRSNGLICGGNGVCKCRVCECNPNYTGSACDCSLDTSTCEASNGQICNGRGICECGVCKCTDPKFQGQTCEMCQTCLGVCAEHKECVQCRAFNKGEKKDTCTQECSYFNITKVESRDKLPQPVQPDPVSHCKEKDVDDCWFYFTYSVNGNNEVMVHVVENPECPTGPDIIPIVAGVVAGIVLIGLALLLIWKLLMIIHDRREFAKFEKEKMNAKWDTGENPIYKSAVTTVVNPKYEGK
T2 sequence (P13612 34-1032): as the sequence (P13612 34-1032) above
T2 sequence (P05556 21-798): as the sequence (P05556 21-798) above

With `O=C(O)[C@@H]1CSSC[C@H](NC(=O)[C@H]2NCC[C@@H]2c2ccc(O)cc2)C(=O)NCCC2(CCCC2)C(=O)N1` [Example 26, (8R,13R)-13-[[[3(R)-(4-hydroxyphenyl)-2(S)-pyrrolidinyl]carbonyl]-amino]-6,14-dioxo-10,11-dithia-7,15-diazaspiro[4.12]heptadecane-8-carboxylic Acid], the pIC50 on VLA-4/VCAM-1 is 9.72.

With `CC(=O)N1CC[C@H](c2ccc(O)cc2)[C@H]1C(=O)N[C@H]1CSSC[C@@H](C(=O)O)NC(=O)C2(CCCCC2)CCNC1=O` [Example 19, (9R,14R)-14-[[[1-acetyl-3-(R)-(4-hydroxyphenyl)-2-(S)-pyrrolidinyl]-arbonyl]amino]-7,15-dioxo-11,12-dithia-8,16-diazaspiro[5. 12]Octadecane-9-carboxylic Acid], the values for the negative logarithm of the IC50 (pIC50) at VLA-4/VCAM-1 and at Ramos (VLA-4)/VCAM-1 were 9.92 and 9.55, respectively.

On to `CC(C)(C)C(=O)N1CC[C@H](c2ccc(O)cc2)[C@H]1C(=O)N[C@H]1CSSC[C@@H](C(=O)O)NC(=O)C2(CCCC2)CCNC1=O` [Example 24, (8R,13R)-13-[[[1-(2,2-dimethyl-1-oxopropyl)-3(R)-(4-hydroxyphenyl)-2(S)-pyrrolidinyl]carbonyl]amino]-6,14-dioxo-10,11-dithia-7,15-diazaspiro[4. 12]heptadecane-8-carboxylic Acid], for which the pIC50 at VLA-4/VCAM-1 is 9.85; at Ramos (VLA-4)/VCAM-1, 9.74.

In the case of `CS(=O)(=O)N1CC[C@H](c2ccc(O)cc2)[C@H]1C(=O)N[C@H]1CSSC[C@@H](C(=O)O)NC(=O)C2(CCCC2)CCNC1=O` [Example 22, (8R,13R)-13-[[[1-methylsulfonyl-3-(R)-(4-hydroxyphenyl)-2-(S)pyrrolidinyl]carbonyl]amino]-6,14-dioxo-10,11-dithia-7,15-diazaspiro[4. 12]-heptadecane-8-carboxylic Acid], on VLA-4/VCAM-1, the pIC50 was 9.77.

`CC(=O)N1CC[C@@H](c2ccc(O)cc2)[C@@H]1C(=O)N[C@H]1CSSC[C@@H](C(=O)O)NC(=O)C2(CCCC2)CCNC1=O` [reference compound]: the results for the pIC50 at VLA-4/VCAM-1 and on Ramos (VLA-4)/VCAM-1 were 8.78 and 7.62, respectively.

`CC(=O)N1CC[C@H](c2ccc(O)cc2)[C@H]1C(=O)N[C@H]1CSSC[C@@H](C(=O)O)NC(=O)C2(CCCC2)CCNC1=O` [Example 12, (8R,13R)-13-[[[1-acetyl-3-(R)-(4-hydroxyphenyl)-2-(S)-pyrrolidinyl]carbonyl]amino]-6,14-dioxo-10,11-dithia-7,15-diazaspiro[4. 12]heptadecane-8-carboxylic Acid]: the pIC50 was 9.73 on VLA-4/VCAM-1 and 9.68 at Ramos (VLA-4)/VCAM-1.
